Data set [1] can be described thus: Photoreactivity ROS assay (OECD TG 495): singlet oxygen (SO) and superoxide anion (SA) generation. On the procedure:
The photoreactivity assay was conducted to detect the generation of oxygen singlet (^1O2; SO) and superoxide anion (O2 ^−•; SA), according to OECD TG n° 495, as described in [Freitas et al. (2015)]. […] SO generation was detected by spectrophotometric measurement of p-nitrosodimethylaniline (RNO) bleaching, followed by decreased absorbance of RNO at 440 nm and SA generation was detected by observing the reduction of nitroblue tetrazolium (NBT) at 560 nm. The assay was performed in triplicate in three independent experiments.
According to the ROS Assay protocol ([OECD, 2019b]), the compound’s photoreactivity is classified according to Table 2.

The next data set relates to 3T3 BALB/c fibroblasts. The data set can be described thus: 3T3 Neutral red uptake phototoxicity test (3T3 NRU PT, OECD TG 432). Type of data set: cell-based. As to conditions: UVA 9 J/cm^2. The method, then: The 3t3 Neutral red uptake phototoxicity (3t3 NRU PT) test was performed in accordance to OECD TG n° 432 ([OECD, 2019a]) using 3T3 BALB/c fibroblasts cells from the Cell Bank of Rio de Janeiro (Rio de Janeiro, Brazil). Fibroblasts were cultured in DMEM supplemented with calf serum (10% v/v), L-glutamine (4 mM) and antibiotic mixture (penicillin, streptomycin and amphotericin B) and incubated at 37°C with 5% CO2. […] The initial concentration for the proportion 5:7:5 was 100 μg/mL for octyl methoxycinnamate, 71.4 μg/mL for avobenzone, and 71.4 μg/mL for avobenzone derivative. These preparations were also diluted in PBS (pH 7.2) to generate samples with 8 different concentrations in a geometric progression (constant factor = 1.47). The highest final concentration of DMSO was 1%. Fibroblasts were seeded at a density of 10^4 cell/well and after 24 h of incubation (5% CO2; 37°C), they were treated with 8 different concentrations of the combinations in the wells in sextuplicate, incubated for 1 h (5% CO2; 37°C) and irradiated with UVA radiation of 9 J/cm^2. […]
Cell viability was measured using the NRU assay with the uptake of the vital dye neutral red into cellular lysosomes. […] After measuring the absorbance of both plates at 540 nm using a microplate reader (SynergyTM 2, Biotek), all data were analyzed by Phototox Software 2.0 (ZEBET, Germany), and the mean photo effect (MPE) was calculated. […]

Data set [2] deals with HaCaT keratinocytes. The data set can be described thus: Protection against intracellular UVA-induced ROS production (DCFH2-DA probe), HaCaT monolayer. As to conditions: UVA 4 J/cm^2. Type of data set: cell-based. The method, then:
To evaluate intracellular ROS production, such as hydroxyl radical, hydrogen peroxide, nitrite and carbonate anion, the probe 2,7-dichlorodihydrofluorescein-diacetate (DCFH2-DA) was used. This probe can undergo hydrolysis by cellular esterases forming the compound DCFH, that can be converted by ROS into the fluorescent compound […] (DCF), measured at the end of the assay ([Kalyanaraman et al., 2012]; [Alam et al., 2013]). The assay was performed under the same conditions (cell type, density and exposure times) as the evaluation of cell viability in immortalized HaCaT keratinocytes.
In detail, 1 × 10^5 cells/well of HaCaT keratinocytes were seeded in 96-well plates and incubated for 24 h at 37°C in a 5% CO2 atmosphere. Then, cells were treated with the avobenzone derivative (31,25–1,000 μg/mL; constant factor: 2) for 1 h and the probe DCFH2-DA (10 µM) for 30 min, followed by 4 J/cm^2 of UVA radiation (Solar simulator Dr. Hönle type SOL-500, Planegg, Germany). This UV waveband was chosen because UVA and visible light are the most relevant radiations for ERO production ([Zastrow et al., 2009]; [Vandersee et al., 2015]). Quercetin (10 μg/mL) and norfloxacin (100 μg/mL) were used as antioxidant and pro-oxidant controls, respectively. The plates were measured using a microplate reader (Synergy™ HT, BioTek, United States) at 485 nm excitation and 528 nm emission. Results are expressed as a percentage of fluorescence in relation to the irradiated control, considered 100%.

Data set [3] relates to HaCaT keratinocytes. Briefly: Cell viability of HaCaT keratinocytes (NRU assay). It counts as cell-based. As to conditions: SDS 100 μg/mL; for Cytotoxicity for HaCaT cells: avobenzone derivative 31.25–1,000 μg/mL, vs untreated control, 70% threshold ISO 10993-5. On the procedure: Prior to the beginning of the assay, cell viability was evaluated to exclude the possibility that the decrease in fluorescence intensity was related to cell death and not to antioxidant activity. HaCaT keratinocytes were cultured in DMEM supplemented with fetal bovine serum (10%), pyruvate (1 mM), penicillin (100 IU/mL) and streptomycin (100 μg/mL), seeded in 96-well plates (1 × 10^5 cells/well) and, 24 h later, treated with avobenzone derivative (31,25–1000 μg/mL; constant factor: 2). Cell viability was determined using the NRU assay ([Gaspar et al., 2013]; [Rangel et al., 2020]) and sodium dodecyl sulfate (SDS) was used as a positive control (100 μg/mL). Untreated cells absorbance at 540 nm were considered 100% of cell viability to calculate the percentage relative to each sample tested.

On the set-up of data set [4]: method as in Santana Reis et al., 2014. As to conditions: method not stated; ref Santana Reis et al., 2014; cited from earlier work.
Data set [5] in a line: DPPH free radical scavenging. Conditions: 30 min in the dark, absorbance 517 nm. The method, then: The DPPH free radical scavenging method was conducted according to [Martins et al. (2016)], with modifications. This assay is based on the reduction of the 2,2-diphenyl-1-picrylhydrazyl radical by the antioxidant agent, acting as a hydrogen donor. DPPH is a stable radical due to its molecular conformation, capable of reacting with hydrogen/electron donors, generating its reduced form, accompanied by a reduction in its absorbance (517 nm) ([Kedare and Singh, 2011]). The antioxidant activity is then determined by monitoring the change in the color of the reaction medium, changing from violet to yellow ([Pisoschi and NEgulescu, 2012]).
In a 96-well plate, 100 µL of each sample were diluted in methanol. The concentrations used for avobenzone derivative under study were […] (constant factor: 2) and quercetin was used as a positive control for the test (14–0.109 μg/mL, constant factor: 2). The plate was covered and kept in a dark place for 30 min at room temperature. The absorbance reading was performed at 517 nm using a microplate reader (Synergy™ 2#, Biotek, United States), and the results obtained were used to calculate the inhibition percentages. […] The half maximum inhibitory concentration (IC50-DPPH) was calculated using the linear equation by replacing the value of y with 50 ([Chen et al., 2013]).
In general terms: Loss of DPPH colour is used to gauge radical scavenging.

Data set [6] deals with reconstructed human skin (RHS). The data set can be described thus: UVA-induced intracellular ROS production (DCFH2-DA probe) in reconstructed human skin model. Conditions: 200 μg/mL, 25 µL topical 1 h; UVA 10 J/cm^2. It counts as cell-based. The method, then:
In-house RHS models were prepared on 24-well cell culture inserts, with primary human fibroblasts and keratinocytes from foreskin (pooled from three donors) after approval by the Ethics Committee in Research Involving Human Beings—School of Pharmaceutical Sciences of Ribeirão Preto—USP (CAAE n° 35685220.3.0000.5403; Protocol CEP/FCFRP n° 551).
Primarily, the dermal compartment consisted of collagen type I (Corning®) and 1.14 × 10^5 normal human fibroblasts that were seeded into the insert (0.4 µm pore size; ThinCert™, Greiner Bio-One GmbH, Frickenhausen—Germany) and incubated overnight. After 20 h, 3.7 × 10^5 normal human keratinocytes were seeded on the top of the dermis mixture and kept submerged in an in-house prepared culture medium for 24 h, so the cells could form a monolayer. […]
Immediately after irradiation and washing with PBS, the tissues were frozen in liquid nitrogen and 8 µm histological sections were obtained in a cryostat. Pictures were taken in an inverted Ti-S microscope (Nikon Instruments Inc., Holland), 488 nm, using 100 ms of exposure intensity and analyzed by ImageJ software ([Rasmussen et al., 2010]; [Marionnet et al., 2014]). Results of fluorescence intensity were normalized to area/pixels and expressed as percent fluorescence compared to untreated irradiated (NT + UV) control, considered 100%.

Data set [7] is described as follows: Photostability by UV spectrophotometry, solutions in isopropanol. Type of data set: physicochemical. On the procedure: To assess the photoprotective potential of the new UV filter’s derivative, as well as its combination with avobenzone and octyl methoxycinnamate (Cb), a photostability assay was conducted irradiating all samples at a dose of 27,6 J/cm^2 emitted by a UVA lamp (Philips UVA Actinic BL/10, Netherlands) ([ICH, 1996]; [1998]), while the negative controls were kept in a dark place. The derivative was tested at 100 μg/mL in isopropanol and the combinations Cb (avobenzone, octyl methoxycinnamate and avobenzone derivative) and Cc (avobenzone, octyl methoxycinnamate and ethylhexyl methoxycrylene were tested with a proportion of 4:8:5 (w/w), where the initial concentrations were 100 μg/mL for octyl methoxycinnamate, 50 μg/mL for avobenzone and 62.5 μg/mL for avobenzone derivative/ethylhexyl methoxycrylene. Solutions were analyzed by spectrophotometry in the 280–400 nm range. The results are expressed as a percentage of the area of irradiated samples related to the area of non-irradiated samples according to [Gaspar and Maia Campos (2006)] and [Tavares et al. (2020)].

[8] abbreviates: solutions in isopropanol, UVA dose 27,6 J/cm^2, area under curve of irradiated vs non-irradiated (100%).

A word on the LogP: it is the decadic logarithm of the partition coefficient of the neutral form, usually between octanol and water.

“And” between values parts separate entries of the source, which are not always exact repeats. Equal values may be shown once. “Also recorded” adds a separate entry of the source.

With `CC(C(=O)O)c1cccc(C(=O)c2ccccc2)c1` (stereo not drawn) [Ketoprofen, ketoprofen], the “SA (superoxide anion generation, NBT reduction at 560 nm)” value in data set [1] (avobenzone derivative 1.0 mM, mean ± SEM, n = 3) turned out to be 116 ± 20.6.
As for `N[C@@H](Cc1c[nH]cn1)C(=O)O` [L-histidine], the “Classification (photoreactivity)” value in data set [1] is “Non-photoreactive”.
Take `CCn1cc(C(=O)O)c(=O)c2cc(F)c(N3CCNCC3)cc21` [Norfloxacin, reference compound]: the “MPE (mean photo effect)” value with 3T3 BALB/c fibroblasts (Phototox Software 2.0, one value per independent experiment (two)) was 0.568 and 0.520. In the data set with HaCaT keratinocytes [2] (100 μg/mL), the “Increase of ROS production compared to NT + UV” value was “approx. 46%”.
In the case of `CCCCCCCCCCCCOS(=O)(=O)[O-].[Na+]` [SDS, sodium dodecyl sulfate], the Cell viability in the data set on HaCaT keratinocytes [3] (untreated cells = 100%) is recorded as below 70%. Also, the “Cytotoxicity for HaCaT cells” value in the data set on HaCaT keratinocytes [3] is listed as “cytotoxic”.
For `O=C(N/N=C/c1ccc(O)cc1)c1ccc(O)cc1` [avobenzone derivative, (E)-4-hidroxi-N’-(4-hydroxybenzylidene)benzohydrazide], the LogP in data set [4] was 1.32 ± 0.52. Moreover, in data set [5], the “IC50 (DPPH)” value worked out at 18.2 ± 10.2 µg/mL. Besides, the “Reduction in ROS generation compared to NT + UV” value in data set [6] is on record as 30.7%; with HaCaT keratinocytes [2] (125 μg/mL), 37%; with HaCaT keratinocytes [2] (250 μg/mL), 31%; in the data set on HaCaT keratinocytes [2] (500 μg/mL) it was 58%. Further, the “Prediction model (phototoxicity)” value in the data set on 3T3 BALB/c fibroblasts (OECD TG 432) is “non phototoxic; also recorded: Non-Phototoxic”. Moreover, the “Classification (photoreactivity)” value in data set [1] was “Non-photoreactive”. The “ROS values higher than NT + UV (possible pro-oxidant effect)” value in the data set with HaCaT keratinocytes [2] (1,000 μg/mL) is 5%. Also, in data set [7] (setting [8]), the “Remaining absorption values after irradiation (%) UVA” value was 97.7 ± 2.5%. Moreover, in data set [7] (setting [8]), the “Remaining absorption values after irradiation (%) UVB” value came to 97.8 ± 2.1%. For the same molecule, the Stability classification entry in data set [7] (solutions, irradiated vs non-irradiated pair (p < 0.05 = photounstable)) was “Photostable”. The “Cytotoxicity for HaCaT cells” value in the data set with HaCaT keratinocytes [3] was “not cytotoxic”.
As to `O=c1c(O)c(-c2ccc(O)c(O)c2)oc2cc(O)cc(O)c12` [quercetin, reference compound], in data set [5], the “IC50 (DPPH)” value came to 2.85 ± 1.03 µg/mL. The “Decrease of ROS production compared to NT + UV” value with HaCaT keratinocytes [2] (10 μg/mL) was “approx. 67%”.

Source of the values: PMC10937738, “Evaluation of the photoprotective and antioxidant potential of an avobenzone derivative” (Frontiers in Physiology, 2024).
